This note sets out measurements from patent US4478828A, “Nonapeptide having immunostimulative activity, process for the preparation thereof, and its use” (Hoechst Aktiengesellschaft, priority 1982, dated 1984).

One series has as its system spleen cells of mice. Nature of the series: Plaqueforming Cell Assay (PFC test), in vitro immunization with sheep erythrocytes. In kind it is cell-based. As to conditions: for Plaques/10^6 cells: added daily, 5 days, control 768. As for the experimental part:
(§1) The nonapeptide of the invention was tested in the Plaqueforming Cell Assay (PFC test) and in the phythemagglutinin stimulation test (PHA test) for its lymphocyte-stimulative action.
In the PFC test, cell cultures of freshly dissected spleens of mice (2×10^7 spleen cells per ml) were prepared in RPMI 1640 and 30 μl of fetal calf serum (FCS) per ml of cell culture. In vitro immunization is carried out with 5×10^7 sheep erythrocytes/ml. The test cell cultures are incubated daily with the corresponding dose of the test substance. After a test period of 5 days, the cells are centrifuged off, washed with RPMI 1640 medium, and the direct PCF test is carried out as follows: The cells are mixed in an agarose solution with a 10% sheep erythrocyte suspension, and poured onto a plane surface. In the gel layer so formed the stimulated lymphocytes set free antibodies in the subsequent incubation which diffuse in the environment and adhere to the sheep erythrocytes present in these places. After addition of guinea pig complement the red blood cells lyse. Light-colored, circular spots are formed in the reddish-brown gel, which can be discerned with a naked eye, and which are the hemolysis halos of the plaques. In the center of such hemoylsis halos there is an antibody-producing cell. The number of lymphoid cells which form specific immunoglobulins can therefore be equalized with the plaque values found.

For the next series, the system named is lymphocytes. Nature of the series: phythemagglutinin stimulation test (PHA test), 3H-thymidine incorporation. In kind it is cell-based. The conditions noted are these: for Stimulation index SI / Incorporation of 3H-thymidine: 20 μg PHA/ml, 72 hours; for Incorporation of 3H-thymidine: control 114 311. As for the experimental part:
as §1
The PHA test allows conclusions on the amount of mature, that is, stimulable, lymphocytes by means of the function test on stimulability with the phytolectin PHA. The lectin, like bacterial or viral antigens, incites the lymphocytes to a blast transformation. It causesd proliferation either directly or by induction of lymphokine secretion.
The incorporation of radioactive thymidine within a defined period of time is then the measure for the number of stimulated cells. The mature or immunologically potent T cells only are stimulated. Thus, the influence of a substance on the maturation of lymphocytes can be observed by means of this test. However, stimulation must remain below the optimum; for, at a higher concentration other subpopulations of lymphocytes are stimulated, too, and the effect cannot be observed any longer. The peptide of the invention was added to the culture medium in varying concentrations.
Background: Dividing cells build labelled thymidine or BrdU into new DNA.

Series [1] is described as follows: toxic effects on administration (general statement).

Square brackets hold non-standard residues; d marks the D form. Peptide text beside a SMILES is read from it. pGlu = O=C1CC[C@@H](C(=O)O)N1

Regarding `C[C@@H](O)[C@H](NC(=O)[C@H](CO)NC(=O)[C@H](CO)NC(=O)[C@H](CO)NC(=O)[C@H](CC(=O)O)NC(=O)[C@@H]1CCC(=O)N1)C(=O)NCC(=O)N[C@@H](Cc1c[nH]c2ccccc12)C(=O)N[C@@H](CC(N)=O)C(=O)O` [nonapeptide, L-pyroglutamyl-L-aspartyl-L-seryl-L-seryl-L-seryl-L-threonyl-glycyl-L-tryptophyl-L-asparagine] ([pGlu]DSSSTGWN-OH), the “Plaques/10^6 cells” value amounted to 908 Plaques/10^6 cells in the series on spleen cells of mice (1 ng/ml nonapeptide); 1112 Plaques/10^6 cells in the series on spleen cells of mice (10 ng/ml nonapeptide); 1024 Plaques/10^6 cells in the series on spleen cells of mice (100 ng/ml nonapeptide); 817 Plaques/10^6 cells in the series on spleen cells of mice (1 μg/ml nonapeptide); 802 Plaques/10^6 cells in the series on spleen cells of mice (5 μg/ml nonapeptide). Besides, the “stimulation of the lymphocytes depending on the dose” value in the series with spleen cells of mice (PFC test, in words) is “bell-shaped curve”; with lymphocytes (PHA test, in words), “bell-shaped curve”. The “Stimulation index SI” value was determined as 0.89 in the series on lymphocytes (0.0125 μg/ml nonapeptide); 1.20 with lymphocytes (0.125 μg/ml nonapeptide); 1.26 with lymphocytes (0.5 μg/ml nonapeptide); 1.00 with lymphocytes (1.0 μg/ml nonapeptide); 0.94 in the series with lymphocytes (5.0 μg/ml nonapeptide). Also, the “Incorporation of 3H-thymidine” value is 101 594 cpm in the series with lymphocytes (0.0125 μg/ml nonapeptide); 137 519 cpm in the series with lymphocytes (0.125 μg/ml nonapeptide); 143 831 cpm in the series with lymphocytes (0.5 μg/ml nonapeptide); 113 978 cpm in the series with lymphocytes (1.0 μg/ml nonapeptide); 107 670 cpm in the series on lymphocytes (5.0 μg/ml nonapeptide). Moreover, the toxic effects entry in series [1] is on record as “toxic effects have not been observed hitherto”.
